These results are taken from publication PMC8747035, “Design, Synthesis, and Biological Evaluation of 5,6,7,8-Tetrahydrobenzo[4,5]thieno[2,3-d]pyrimidines as Microtubule Targeting Agents” (Molecules, 2022).

In series [1] the test system is HeLa cells. As to the kind of experiment: SRB assay in HeLa cells. Particulars: Homo sapiens, read-out: IC50 ± SD in HeLa. In kind it is cell-based. Here is the method:
(§1) Compounds 4–8, 10, 12, and 13 were evaluated for their abilities to overcome βIII-tubulin mediated drug resistance using an isogenic HeLa cell line pair (Table 4). […] The Rr values (Table 4) were calculated by dividing the IC50 of the βIII-tubulin expressing line by the IC50 obtained in the parental HeLa cells.
(§2) The antiproliferative and cytotoxic effects of the compounds in cancer cells were evaluated using the SRB assay as previously described. MDA-MB-435 cells were obtained from the Lombardi Cancer Center of Georgetown University (Washington, DC, USA). SK-OV-3 and HeLa cells were purchased from ATCC. Details about the generation of the SK-OV-3 MDR1-M6/6 and HeLa WTβIII cells were described previously. The IC50 values represent an average of three independent experiments, each conducted using triplicate points.
(§3) HeLa, A-10, SK-OV-3, and SK-OV-3 MDR1-M6/6 cells were grown in Basal Medium Eagle (Sigma-Aldrich, St. Louis, MO, USA) supplemented with 10% FBS (Hyclone, GE Life Sciences, Logan, UT, USA) 1% GlutaMAX (Gibco, Life Technologies, Waltham, MA, USA) and 50 µg/mL gentamycin (Life Technologies, USA). HeLa WTβIII cells were grown in Dulbecco’s Modified Eagle Medium (Life Technologies) supplemented with 10% FBS and 50 µg/mL gentamycin. MDA-MB-435 cells were maintained in Improved Minimum Essential Medium (Life Technologies) supplemented with 10% FBS and 25 µg/mL gentamycin. All cells were grown at 37 °C in a humidified environment with 5% CO2.
On the technique in general: In SRB staining, fixed cells bind dye roughly in proportion to their protein.

The next series concerns MDA-MB-435 tumors. As to the kind of experiment: MDA-MB-435 xenograft model. It counts as in vivo, nude mice. Particulars: 15 mg/kg i.p. 3 times a week. Here is the method: Compound 4 was selected for further evaluation in an in vivo xenograft mouse study in light of its nanomolar potency in vitro in the NCI-60 cancer cell line panel and its potent microtubule depolymerization activity. The in vivo effects of 4 were tested in the MDA-MB-435 xenograft model (Figure 5).
MDA-MB-435 tumor fragments were implanted s.c. into the flanks of female nude mice. […] Compound 4 was dissolved in a 50:50 Cremophor EL/DMSO mixture and further dissolved in PBS for a final concentration of 10:10:80 Cremophor EL:DMSO:PBS (v/v). […] Tumor volumes and mouse weights were measured 2–3 times a week. A two-way ANOVA with Dunnett’s post-hoc tests including all treatment groups in the trial was used to determine significant differences in tumor volumes between drug-treated and untreated control groups on each measurement day. These animal studies were performed at the University of Texas Health Science Center in San Antonio in compliance with an approved Institutional Animal Care and Use protocol.
MDA-MB-435 tumors were implanted into the flanks of nude mice and allowed to grow until they reached a volume of ~200 mm^3. […] Tumor volumes and mouse weights were measured 2–3 times a week. Statistical significance was evaluated by two-way ANOVA (time vs. drug) with Dunnett’s post-hoc tests. A statistically significant difference in tumor volume was detected on day 14 between mice treated with 4 (* p = 0.0384) and untreated control tumors.

The test system of series [2] is SK-OV-3 cells. Description: SRB assay in SK-OV-3 cells. Particulars: Homo sapiens, read-out: IC50 ± SD in SK-OV-3 Cells. It counts as cell-based. Here is the method: Comparison of the IC50 values in the parental SK-OV-3 and genetically manipulated SK-OV-3 MDR1-M6/6 cell line allows for the calculation of a relative resistance value, designated Rr. This value is calculated by dividing the IC50 value obtained in the Pgp-expressing SK-OV-3 MDR1-M6/6 cells by the IC50 obtained in the parental SK-OV-3 cells.
as §2, §3

Series [3] has as its system HeLa WTβIII cells. Description: SRB assay in βIII-tubulin expressing HeLa WTβIII cells. As to conditions: Homo sapiens, read-out: IC50 ± SD in HeLa WTβ3. In kind it is cell-based. Here is the method: as §1, §2, §3
The subject of series [4] is HeLa WTβIII cells. As to conditions: read-out: IC50 ± SD in HeLa WTβ3; cited from earlier work.
The next series relates to SK-OV-3 MDR1-M6/6 cells. Particulars: read-out: IC50 ± SD in SK-OV-3 MDR1-M6/6 Cells; cited from earlier work.
In another series the test system is tubulin. As to conditions: compound at 5 μM; cited from earlier work.
For another series, the system named is MDA-MB-435 cells. Particulars: SRB assay, antiproliferative; read-out: IC50 ± SD in MDA-435 Cells; cited from earlier work.
The test system of series [5] is SK-OV-3 cells. As to conditions: read-out: IC50 ± SD in SK-OV-3 Cells; cited from earlier work.
Another series concerns Bovine brain tubulin. As to conditions: read-out: Inhibition of Tubulin Assembly IC50 ± SD; cited from earlier work.
The subject of the next series is A-10 cells. As to conditions: read-out: EC50 for Microtubule Depolymerization in A-10 Cells; cited from earlier work.
Series [6] relates to HeLa cells. Particulars: read-out: IC50 ± SD in HeLa; cited from earlier work.

Where two headings read alike, the source gives them in different places.

The term EC50 denotes the concentration that produces a half-maximal response.

As to `CC(=O)O[C@H]1C(=O)[C@@]2(C)[C@H]([C@H](OC(=O)c3ccccc3)[C@]3(O)C[C@H](OC(=O)[C@H](O)[C@@H](NC(=O)c4ccccc4)c4ccccc4)C(C)=C1C3(C)C)[C@]1(OC(C)=O)CO[C@@H]1C[C@@H]2O` [Paclitaxel, paclitaxel, reference compound], the IC50 in the series on HeLa cells [1] is 2.8 ± 0.4 nM; in the series on SK-OV-3 cells [2], 5 ± 0.6 nM; in the series on HeLa WTβIII cells [3] it was 24 ± 3 nM. The “Antitumor effects on MDA-MB-435 tumor volume vs control” value in the series on MDA-MB-435 tumors was “did not reach statistical significance”.
Turning to `COc1ccc(N(C)c2ncnc3[nH]c4ccccc4c23)cc1` [Compound 3], the IC50 was 99.5 ± 12 nM with HeLa WTβIII cells [4]; 224 ± 21 nM in the series on SK-OV-3 MDR1-M6/6 cells; 130 ± 7.8 nM with MDA-MB-435 cells; 173 ± 8.6 nM with SK-OV-3 cells [5]; 2300 ± 400 nM in the series with Bovine brain tubulin; 142 ± 8.1 nM with HeLa cells [6]. Further, the “Inhibition of Colchicine Binding (% inhibition ± SD)” value (shortened to “Inhibition … (% inhibition ± SD)”) with tubulin was 62.0 ± 4.0%. Moreover, the EC50 in the series on A-10 cells is 1200 nM.
For the compound `CSc1ccc(N(C)c2nc(N)nc3[nH]c4ccccc4c23)cc1` [Compound 2], the IC50 was 78.4 ± 4 nM in the series with HeLa WTβIII cells [4]; 160 ± 15 nM in the series on SK-OV-3 MDR1-M6/6 cells; 89.1 ± 10 nM in the series with MDA-MB-435 cells; 156 ± 16 nM in the series on SK-OV-3 cells [5]; 2300 ± 300 nM in the series with Bovine brain tubulin; 118 ± 13 nM with HeLa cells [6]. Moreover, the “Inhibition … (% inhibition ± SD)” value in the series with tubulin is given as 67.0 ± 5.0%. Also, in the series with A-10 cells, the EC50 is 1100 nM.
Take `COc1ccc(N(C)c2nc(N)nc3[nH]c4ccccc4c23)cc1` [Compound 1]: the IC50 was 21.4 ± 3.5 nM in the series with HeLa WTβIII cells [4]; 14.7 ± 1.5 nM in the series on MDA-MB-435 cells; 27.6 ± 1.8 nM in the series with SK-OV-3 cells [5]; 1400 ± 7 nM with Bovine brain tubulin; 21.3 ± 2.2 nM in the series on HeLa cells [6]. Further, the “Inhibition … (% inhibition ± SD)” value in the series on tubulin is 84 ± 0.50%. Further, the EC50 with A-10 cells was 130 nM.
